The values below are quoted from earlier work in patent US20210308204A1, “FORMULATIONS CONTAINING LIPOPHILIC EXTRACTS OF SPICY EDIBLE PLANTS USEFUL IN CONTROLLING PAIN AND INFLAMMATION” (priority 2018, published 2021).

The conditions of this data set: in vivo, po.

Each structure is given as a SMILES string.

`C/C1=C\CC/C(C)=C/C[C@](O)(C(C)C)CC/C(C)=C/CC1` [serratol]: the tmax result is on record as “about 15 minutes”.
